Reference: the supplement of paper PMC10883282

How the values were obtained:
Assay in all cases: relative viability vs DMSO control (72 h) (fraction); higher = more viable cells
G401 = tested on: G401
Procedure, shortened: (§1)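 Relative viability was measured with ATPLite and expressed as percent growth, averaged across up to triplicate wells. Sarcoma cell lines had been seeded in 384-well plates to reach 80–90% confluence, dosed after 24 h, and incubated 72 h at 37 °C, 5% CO2. All data were rescaled on a scale where 1 is full and 0 is none.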

A204 = tested on: A204
Procedure, shortened: as §1

SW1353 = tested on: SW1353
Procedure, shortened: as §1

SK-ES-1 = tested on: SK-ES-1
Procedure, shortened: as §1

HT1080 = tested on: HT1080
Procedure, shortened: as §1

SW684 = tested on: SW684
Procedure, shortened: as §1

SW982 = tested on: SW982
Procedure, shortened: as §1

SW872 = tested on: SW872
Procedure, shortened: as §1

RD-ES = tested on: RD-ES
Procedure, shortened: as §1

KHOS-240S = tested on: KHOS-240S
Procedure, shortened: as §1

KHOS-NP = tested on: KHOS-NP
Procedure, shortened: as §1

SYO-1 = tested on: SYO-1
Procedure, shortened: as §1

CC[C@@H]1CN(C(=O)NCC(F)(F)F)C[C@@H]1c1cnc2cnc3[nH]ccc3n12 [Upadacitinib]
Conditions	relative viability
A204, 0.00017 µM	1.05
A204, 0.00051 µM	1.1
A204, 0.00152 µM	1.1
A204, 0.00457 µM	1.07
A204, 0.01372 µM	1.05
A204, 0.04115 µM	1.05
A204, 0.1235 µM	1.07
A204, 0.3704 µM	1.03
A204, 1.111 µM	1.03
A204, 3.333 µM	0.945
A204, 10 µM	0.832
G401, 0.00017 µM	1.03
G401, 0.00051 µM	1.04
G401, 0.00152 µM	1
G401, 0.00457 µM	1.04
G401, 0.01372 µM	1.02
G401, 0.04115 µM	0.987
G401, 0.1235 µM	1.01
G401, 0.3704 µM	0.977
G401, 1.111 µM	0.953
G401, 3.333 µM	0.904
G401, 10 µM	0.842
HT1080, 0.00017 µM	1.06
HT1080, 0.00051 µM	1.06
HT1080, 0.00152 µM	1.08
HT1080, 0.00457 µM	1.05
HT1080, 0.01372 µM	1.07
HT1080, 0.04115 µM	1.06
HT1080, 0.1235 µM	1.05
HT1080, 0.3704 µM	1.062
HT1080, 1.111 µM	1.035
HT1080, 3.333 µM	1.01
HT1080, 10 µM	0.9733
KHOS-240S, 0.00017 µM	1.09
KHOS-240S, 0.00051 µM	1.06
KHOS-240S, 0.00152 µM	1.09
KHOS-240S, 0.00457 µM	1.1
KHOS-240S, 0.01372 µM	1.08
KHOS-240S, 0.04115 µM	1.09
KHOS-240S, 0.1235 µM	1.06
KHOS-240S, 0.3704 µM	1.04
KHOS-240S, 1.111 µM	0.982
KHOS-240S, 3.333 µM	0.919
KHOS-240S, 10 µM	0.708
KHOS-NP, 0.00017 µM	1.07
KHOS-NP, 0.00051 µM	1.09
KHOS-NP, 0.00152 µM	1.07
KHOS-NP, 0.00457 µM	1.08
KHOS-NP, 0.01372 µM	1.08
KHOS-NP, 0.04115 µM	1.088
KHOS-NP, 0.1235 µM	1.07
KHOS-NP, 0.3704 µM	1.06
KHOS-NP, 1.111 µM	1.03
KHOS-NP, 3.333 µM	0.965
KHOS-NP, 10 µM	0.912
RD-ES, 0.00017 µM	0.981
RD-ES, 0.00051 µM	0.979
RD-ES, 0.00152 µM	1
RD-ES, 0.00457 µM	0.979
RD-ES, 0.01372 µM	1
RD-ES, 0.04115 µM	0.99
RD-ES, 0.1235 µM	0.97
RD-ES, 0.3704 µM	0.974
RD-ES, 1.111 µM	0.964
RD-ES, 3.333 µM	0.996
RD-ES, 10 µM	0.989
SK-ES-1, 0.00017 µM	1.02
SK-ES-1, 0.00051 µM	1.01
SK-ES-1, 0.00152 µM	1.05
SK-ES-1, 0.00457 µM	1.02
SK-ES-1, 0.01372 µM	1.02
SK-ES-1, 0.04115 µM	1
SK-ES-1, 0.1235 µM	1.058
SK-ES-1, 0.3704 µM	1.01
SK-ES-1, 1.111 µM	0.982
SK-ES-1, 3.333 µM	0.986
SK-ES-1, 10 µM	0.907
SW684, 0.00017 µM	1.1
SW684, 0.00051 µM	1.19
SW684, 0.00152 µM	1.18
SW684, 0.00457 µM	1.18
SW684, 0.01372 µM	1.17
SW684, 0.04115 µM	1.16
SW684, 0.1235 µM	1.18
SW684, 0.3704 µM	1.13
SW684, 1.111 µM	1.17
SW684, 3.333 µM	1.11
SW684, 10 µM	1.03
SW872, 0.00017 µM	1.07
SW872, 0.00051 µM	1.07
SW872, 0.00152 µM	1.07
SW872, 0.00457 µM	1.03
SW872, 0.01372 µM	1.03
SW872, 0.04115 µM	1.01
SW872, 0.1235 µM	1.01
SW872, 0.3704 µM	0.963
SW872, 1.111 µM	1
SW872, 3.333 µM	0.97
SW872, 10 µM	0.85
SW982, 0.00017 µM	1.01
SW982, 0.00051 µM	1.022
SW982, 0.00152 µM	1.05
SW982, 0.00457 µM	1.05
SW982, 0.01372 µM	1.052
SW982, 0.04115 µM	1.04
SW982, 0.1235 µM	1.06
SW982, 0.3704 µM	1.043
SW982, 1.111 µM	1
SW982, 3.333 µM	0.969
SW982, 10 µM	0.779
SW1353, 0.00017 µM	1.04
SW1353, 0.00051 µM	1.04
SW1353, 0.00152 µM	1.02
SW1353, 0.00457 µM	1.04
SW1353, 0.01372 µM	0.997
SW1353, 0.04115 µM	1.01
SW1353, 0.1235 µM	1.001
SW1353, 0.3704 µM	0.942
SW1353, 1.111 µM	0.937
SW1353, 3.333 µM	0.84
SW1353, 10 µM	0.686
SYO-1, 0.00017 µM	1.04
SYO-1, 0.00051 µM	1
SYO-1, 0.00152 µM	0.988
SYO-1, 0.00457 µM	0.978
SYO-1, 0.01372 µM	0.958
SYO-1, 0.04115 µM	0.934
SYO-1, 0.1235 µM	0.927
SYO-1, 0.3704 µM	0.894
SYO-1, 1.111 µM	0.826
SYO-1, 3.333 µM	0.764
SYO-1, 10 µM	0.592
